Test results taken from paper PMC12040169 (PLOS Biology, 2025).

Test: in vitro
Details: human, hela cells

SMILES	viability at 28.5 h, 10 µM (% viability) [%]	viability at 28.5 h, 10 µM [%]
Cc1ccc(C(C)(C)C(=O)N2CC(C(=O)N3CCN(C)CC3)C2)cc1 [CBK281371]	99.4	
CC(=O)N1CC(C(=O)Nc2nc3c(C)cc(C)cc3s2)C1 [CBK281372]	95.9	
CC(NC(=O)c1ccccc1Cn1cccn1)c1ccccn1 (stereo not shown) [CBK281374]	86.3	
CNC(=O)C1(C)CCCN1C(=O)c1cc2cc(C)ccc2n1C (stereo not shown) [CBK281375]	86.1	
CCn1cncc1C(=O)Nc1ccc(-n2ccnc2C(C)C)cc1 [CBK281379]	95.8	
CC(C)c1nccn1-c1ccc(NC(=O)Cn2ccnc2)cc1 [CBK281381]	88.9	
O=C(CCCn1ccnc1)Nc1ccc(N2CCCCC2)c(F)c1 [CBK281385]	81.1	
O=C(Nc1ccc(N2CCCCC2)c(F)c1)C1CC(=O)N(C2CC2)C1 (stereo not shown) [CBK281387]	108	
Cc1cc(C(=O)NCCn2nc(C)c(C)c2C)c2cccc(C)c2n1 [CBK281388]	110	
Cc1ccc(C(=O)Nc2ccc(N3CCCCC3)c(F)c2)c(=O)n1C [CBK281390]	89.5	
Cc1cc(CNC(=O)c2cc3ccc(Cl)cc3[nH]2)[nH]n1 [CBK281391]	87.8	
Cc1nn(C)c(C)c1C(C)NS(=O)(=O)Cc1cccc(F)c1 (stereo not shown) [CBK281396]	107	
Cc1ccc2nc(C(=O)NCCSc3nccn3C)cn2c1 [CBK281397]	93.4	
Cc1ccc(S(=O)(=O)NCCc2nc3ccccc3n2C)s1 [CBK281398]	81.5	
CCn1cnc2cc(NC(=O)CC(C)n3nc(C)cc3C)ccc21 (stereo not shown) [CBK281401]	94.8	
Cc1nc(-c2ccc(NC(=O)Cc3sc(C)nc3C)cc2)cs1 [CBK281404]	96	
Cc1noc(C)c1CC(=O)Nc1cccc(CN2CCCCCC2)c1 [CBK281407]	105	
O=C(Cn1ccnc1)Nc1nc(-c2ccccc2F)cs1 [CBK281409]	104	
Cc1ncncc1C(=O)NCC1(c2ccccc2F)CCCC1 [CBK281411]	105	
CC1(CNS(=O)(=O)Cc2cc(F)cc(F)c2)COC1 [CBK281413]	91.3	
CCc1nc(CNC(=O)c2cc3cc(F)ccc3n2C)no1 [CBK281414]	93.6	
CC(C)Oc1cccc(CNC(=O)c2ccc(C(C)(C)C)[nH]c2=O)c1 [CBK281415]	92.2	
Cc1ccn2cc(C(=O)NCCSc3nccn3C)nc2c1 [CBK281417]	104	
Cc1c(S(=O)(=O)Nc2ccc(-c3ccc(F)cc3)cc2)cnn1C [CBK281418]	114	

SMILES	viability at 28.5 h, 10 µM (% viability) [%]	viability at 28.5 h, 10 µM [%]
Cc1cc(=O)n(CC(=O)NC(C)Cc2ccccn2)c2ccccc12 (stereo not shown) [CBK281420]	90.3	
CC(Cc1ccccn1)NC(=O)c1cc(-c2ccccc2F)no1 (stereo not shown) [CBK281421]	91.1	
COc1ccc2c(C)c(C(=O)NC(C)Cc3ccccn3)oc2c1 (stereo not shown) [CBK281424]	89.1	
Cc1nc(C)c(CC(=O)Nc2cccc(CN3CCCC3)c2)s1 [CBK281426]	105	
Cc1ccc(F)c(S(=O)(=O)NC(C)Cc2ccccn2)c1 (stereo not shown) [CBK281427]	90.5	
Cc1nn(CCNC(=O)C2CC3C=CC2C32CC2)c(C)c1Cl (stereo not shown) [CBK281429]	90.8	
Cn1nc(C(=O)Nc2ccccc2Oc2ccc(F)cc2)ccc1=O [CBK281430]	91	
COCCn1cc(C(=O)N2CCCC(CN(C)C)C2)c2ccccc21 (stereo not shown) [CBK281431]		91.5
CC(NC(=O)CC(C)n1cccn1)c1cc2cc(Cl)ccc2o1 (stereo not shown) [CBK281432]	92.6	
CCc1cc(C(=O)NC(c2ccc(F)cc2)c2nccn2C)n(C)n1 (stereo not shown) [CBK281434]	108	
COC(=O)C1(Cc2ccccc2-c2ccncc2)CCNC1 (stereo not shown) [CBK281435]	85.2	
Cc1cn(CC(=O)NCC2(c3cccc(F)c3)CCCC2)nn1 [CBK281436]	89.7	
CC(C(=O)NC(c1ccncc1)c1cccs1)n1ccnc1 (stereo not shown) [CBK281438]	90.9	
Cc1nccn1CCC(=O)NC(c1ccncc1)c1cccs1 (stereo not shown) [CBK281440]	90.6	
Cn1ccnc1C(NC(=O)C1C2CCCCC21)c1ccc(F)cc1 (stereo not shown) [CBK281441]	98.7	
Cc1nonc1CN(C)C(=O)c1ccc2c(c1)c(C)c(C)n2C [CBK281442]	56.1	
CCCn1nc(C)c(-c2cncn2CCn2nc(C)c(C)c2C)c1C [CBK281444]	83.5	
Cc1noc(C)c1CC(=O)NC(C)c1cc2cc(Cl)ccc2o1 (stereo not shown) [CBK281445]	90.1	
Cc1cnn(CC(=O)NC(C)c2cc3cc(Cl)ccc3o2)c1 (stereo not shown) [CBK281447]	90.2	
Cc1nn(C)c(C)c1CN(C(=O)c1ccc(C)n(C)c1=O)C1CC1 [CBK281450]	105	
Cn1c(=O)cc(Oc2ccc(F)cc2)c2ccccc21 [CBK281451]	88.1	
OC(CN1CCC(Oc2cccc(F)c2)CC1)c1cccs1 (stereo not shown) [CBK281453]	88.8	
CC(CC(=O)NC(c1ccc(F)cc1)c1nccn1C)n1cccn1 (stereo not shown) [CBK281454]	93.7	
O=C(Cn1ccnc1)Nc1ccccc1Oc1ccc(F)cc1 [CBK281455]	90.1	

SMILES	viability at 28.5 h, 10 µM (% viability) [%]	viability at 28.5 h, 10 µM [%]
Cc1cccc(OCCn2cncc2-c2cn(C)nc2C)c1C [CBK281458]	112	
CCC(CN1CCCC1)n1cncc1-c1cn(C)nc1C (stereo not shown) [CBK281459]	102	
CCC(CN1CCCCC1)n1cncc1-c1cn(C)nc1C (stereo not shown) [CBK281460]	96.9	
O=C(Nc1ccc(N2CCCC2)c(F)c1)C1CC(=O)N(C2CC2)C1 (stereo not shown) [CBK281461]	100	
O=C(Cc1ccc2c(c1)CCCO2)NCc1ccccc1-n1ccnc1 [CBK281463]	86.6	
c1ccc(-c2n[nH]cc2-c2cncn2CCCN2CCCCC2)cc1 [CBK281464]	90.4	
CC(C)(CO)CCCn1cncc1-c1cnn(-c2ccc(F)cc2)c1 [CBK281466]	117	
Cc1cc(C)n(C(C)CC(=O)NC(C)c2nc3ccccc3s2)n1 (stereo not shown) [CBK281469]	93.2	
CC(=O)N1CCc2cc(NC(=O)c3cc4cc(C)ccc4o3)ccc21 [CBK281470]	86.2	
CC(=O)N1CCc2cc(NC(=O)Cn3ccnc3C(C)C)ccc21 [CBK281471]	90.1	
Cc1nccn1CCC(=O)Nc1ccccc1Oc1ccc(F)cc1 [CBK281473]	91.9	
O=C(CCn1cccn1)NCC1CCCOC1 (stereo not shown) [CBK281474]	110	
CCCn1nc(C)c(-c2cncn2CCc2c(C)nn(C)c2C)c1C [CBK281475]	91.5	
Cc1nc(C)c(CC(=O)N(C)CC2OCCc3ccccc32)s1 (stereo not shown) [CBK281478]	90.9	
O=C(Cn1ccnc1)NC(c1ccc(Cl)cc1)c1cccnc1 (stereo not shown) [CBK281481]	99.2	
CCc1cc(C(=O)NC(c2ccncc2)c2cccs2)n(C)n1 (stereo not shown) [CBK281482]	109	
Cn1ccnc1C(NC(=O)[C@@H]1C[C@@H]2C=C[C@H]1C2)c1ccc(F)cc1 (stereo partly shown) [CBK281483]	95.5	
Cc1nn(C)cc1-c1cncn1Cc1cccc(OC(C)C)c1 [CBK281484]	95.3	
Cc1cc(CNC(=O)CCn2ccc(C)n2)on1 [CBK281485]	97.3	
Cc1cc(CNC(=O)C(C)Cn2cccn2)on1 (stereo not shown) [CBK281486]	90.9	
Cc1cc(CNC(=O)Cn2nc(C)c(C)c2C)on1 [CBK281487]	95.1	
CC(NC(=O)c1n[nH]c2c1CCC2)c1cccnc1 (stereo not shown) [CBK281488]	93.7	
c1ccc(Cn2cc(-c3cncn3CCCN3CCCCC3)cn2)cc1 [CBK281491]	91.4	
Cc1nn(C)cc1-c1cncn1CCCN1CCCCC1 [CBK281493]	96	

SMILES	viability at 28.5 h, 10 µM (% viability) [%]	viability at 28.5 h, 10 µM [%]
O=C(CCCn1ccnc1)NCC1(c2cccc(F)c2)CCCC1 [CBK281500]	88.5	
O=C(C1CC2C=CC1C21CC1)N1CCC(Oc2cccnc2)CC1 (stereo not shown) [CBK281501]	101	
Cc1ccc(S(=O)(=O)NCCn2nc(C)c(C)c2C)s1 [CBK281502]	86.7	
O=C(NCc1ccc2c(c1)CCCO2)C1CC2C=CC1C21CC1 (stereo not shown) [CBK281503]	89.1	
CC(O)(c1ccncc1)c1nccs1 (stereo not shown) [CBK281504]	90.1	
CC(C)Cc1cc(CNS(=O)(=O)Cc2ccccc2F)on1 [CBK281505]	96.6	
Cc1cc(C)c(C)c(OCCCNC(=O)Cc2c(C)noc2C)c1 [CBK281506]	100	
Cc1noc(C)c1CC(=O)NC(CN1CCCCC1)c1ccccc1 (stereo not shown) [CBK281507]	89.1	
COc1ccc(N2CC(C(=O)N(C)CC(F)(F)F)CC2=O)cc1 (stereo not shown) [CBK281510]	98.2	
Cc1noc(C)c1CC(=O)NC(C)CCc1ccc(F)cc1 (stereo not shown) [CBK281511]	89.8	
O=C(C1CC2C=CC1C21CC1)N1CCCC(c2nc3ccccc3[nH]2)C1 (stereo not shown) [CBK281513]	91.4	
CC1CCc2onc(C(=O)NCc3nccn3C)c2C1 (stereo not shown) [CBK281514]	68.9	
Cc1cc(C)n(C(C)CC(=O)NCc2ccccc2-n2ccnc2)n1 (stereo not shown) [CBK281518]	84.3	
CC1Oc2ccc(NC(=O)C3CC4C=CC3C43CC3)cc2NC1=O (stereo not shown) [CBK281523]	101	
CC(C)Cc1cc(CNC(=O)C(C)n2cc(Cl)cn2)on1 (stereo not shown) [CBK281524]	92.8	
O=C(C1CC2C=CC1C21CC1)N1CCC(Oc2cccc(F)c2)CC1 (stereo not shown) [CBK281525]	85.4	
CCN1CC(C(=O)Nc2nc3c(s2)CCCCCC3)CC1=O (stereo not shown) [CBK281526]	84.2	
COc1ccc2[nH]c3c(c2c1)CN(C(=O)CCC1CCCO1)CC3 (stereo not shown) [CBK281530]	99.7	
Cc1cccc(OCC2CCCN(C(=O)Cn3cc(C)cn3)C2)c1 (stereo not shown) [CBK281531]	89.9	
CCCn1ncc(C(=O)NC(C)c2c(C)nn(CC)c2C)c1C (stereo not shown) [CBK281532]	85.5	
CCn1nc(C)c(C(C)NC(=O)c2ccnn2C(F)F)c1C (stereo not shown) [CBK281535]	88.4	
Cc1[nH]c2ccc(CNC(=O)Cn3ccnc3C(C)C)cc2c1C [CBK281540]	87.6	
